Measurements: patent US20120034613A1, “Apparatus and Method for Testing Relationships Between Gene Expression and Physical Appearance of Skin” (NSE Products, Inc., priority 2010, published 2012)

Tested on: EpidermFT™ Skin Model (EFT-400) full thickness skin cultures
Assay: Affymetrix GeneChip HG U133 Plus 2.0 microarray global gene expression, agent-exposed vs untreated skin cultures
Type: cell-based, human
Settings: Salicin 0.5%, 24 hr
[1] = 219471_at C13orf18 /// LOC728970

OCc1ccccc1O[C@@H]1O[C@H](CO)[C@@H](O)[C@H](O)[C@H]1O [Salicin, 2-(Hydroxymethyl)phenyl β-D-glucospyranoside]
Direction (215997_s_at CUL4B): up
Fold change (215997_s_at CUL4B): 2.138
Direction (217202_s_at GLUL): up
Fold change (217202_s_at GLUL): 2.106
Direction (217739_s_at NAMPT): up
Fold change (217739_s_at NAMPT): 2.155
Direction (218574_s_at LMCD1): up
Fold change (218574_s_at LMCD1): 2.123
Direction (218665_at FZD4): up
Fold change (218665_at FZD4): 2.078
Direction (218810_at ZC3H12A): up
Fold change (218810_at ZC3H12A): 2.117
Direction (219054_at C5orf23): up
Fold change (219054_at C5orf23): 2.096
Direction (219283_at C1GALT1C1): up
Fold change (219283_at C1GALT1C1): 2.107
Direction (219284_at HSPBAP1): up
Fold change (219284_at HSPBAP1): 2.08
Direction [1]: up
Fold change [1]: 2.12
Direction (219558_at ATP13A3): up
Fold change (219558_at ATP13A3): 2.138
Direction (219774_at CCDC93): up
Fold change (219774_at CCDC93): 2.13
Direction (219790_s_at NPR3): up
Fold change (219790_s_at NPR3): 2.115
Direction (220253_s_at LRP12): up
Fold change (220253_s_at LRP12): 2.096
Direction (221586_s_at E2F5): up
Fold change (221586_s_at E2F5): 2.079
Direction (221881_s_at CLIC4): up
Fold change (221881_s_at CLIC4): 2.109
Direction (223758_s_at GTF2H2): up
Fold change (223758_s_at GTF2H2): 2.138
Direction (224461_s_at AIFM2): up
Fold change (224461_s_at AIFM2): 2.132
Direction (224583_at COTL1): up
Fold change (224583_at COTL1): 2.077
Direction (224978_s_at USP36): up
Fold change (224978_s_at USP36): 2.122
Direction (225034_at ST3GAL1): up
Fold change (225034_at ST3GAL1): 2.099
Direction (225185_at MRAS): up
Fold change (225185_at MRAS): 2.155
Direction (225212_at SLC25A25): up
Fold change (225212_at SLC25A25): 2.108
Direction (225436_at FAM108C1): up
Fold change (225436_at FAM108C1): 2.142
Direction (225590_at SH3RF1): up
Fold change (225590_at SH3RF1): 2.104
Direction (225871_at STEAP2): up
Fold change (225871_at STEAP2): 2.153
Direction (226136_at GLIPR1): up
Fold change (226136_at GLIPR1): 2.104
Direction (226142_at GLIPR1): up
Fold change (226142_at GLIPR1): 2.129
Direction (226160_at H6PD): up
Fold change (226160_at H6PD): 2.103
Direction (226731_at PELO): up
Fold change (226731_at PELO): 2.098
Direction (226800_at EFCAB7): up
Fold change (226800_at EFCAB7): 2.156
Direction (228082_at ASAM): up
Fold change (228082_at ASAM): 2.108
Direction (228702_at FLJ43663): up
Fold change (228702_at FLJ43663): 2.156
Direction (228949_at GPR177): up
Fold change (228949_at GPR177): 2.105
Direction (228950_s_at GPR177): up
Fold change (228950_s_at GPR177): 2.126
Direction (229194_at PCGF5): up
Fold change (229194_at PCGF5): 2.107
Direction (229306_at FAM148B): up
Fold change (229306_at FAM148B): 2.129
Direction (229414_at PITPNC1): up
Fold change (229414_at PITPNC1): 2.108
Direction (229553_at PGM2L1): up
Fold change (229553_at PGM2L1): 2.113
Direction (229623_at FLJ12993): up
Fold change (229623_at FLJ12993): 2.132
Direction (230291_s_at NFIB): up
Fold change (230291_s_at NFIB): 2.15
Direction (232004_at HNRNPR): up
Fold change (232004_at HNRNPR): 2.126
Direction (232267_at GPR133): up
Fold change (232267_at GPR133): 2.135
Direction (232311_at B2M): up
Fold change (232311_at B2M): 2.121
Direction (235019_at CPM): up
Fold change (235019_at CPM): 2.117
Direction (235182_at ISM1): up
Fold change (235182_at ISM1): 2.138
Direction (235311_at FKBP14): up
Fold change (235311_at FKBP14): 2.153
Direction (236154_at QKI): up
Fold change (236154_at QKI): 2.103
Direction (238893_at LOC338758): up
Fold change (238893_at LOC338758): 2.075
Direction (239108_at FAR2): up
Fold change (239108_at FAR2): 2.081
Direction (239415_at MAP9): up
Fold change (239415_at MAP9): 2.126
Direction (240395_at LOC100128727): up
Fold change (240395_at LOC100128727): 2.078
Direction (241986_at BMPER): up
Fold change (241986_at BMPER): 2.136
Direction (243631_at LOC727815): up
Fold change (243631_at LOC727815): 2.087
Direction (243797_at STK17B): up
Fold change (243797_at STK17B): 2.09
Direction (244752_at ZNF438): up
Fold change (244752_at ZNF438): 2.083
Direction (1553962_s_at RHOB): up
Fold change (1553962_s_at RHOB): 2.094
